Measurements as given in patent US7994200B2, “Cycloalkane-substituted pyrazoline derivatives, their preparation and use as medicaments” (Laboratorios del Dr. Esteve, S.A., priority 2005, dated 2011).
Where two headings read alike, the source gives them in different places.

Key:
CB1-Receptor = molecular target: T1, CB1-Receptor (Homo sapiens, UniProt P21554); experiment: In-vitro determination of affinity to CB1/CB2-Receptors, radioligand [3H]-CP55940; format: binding
T1 construct: purchased Receptor Biology, Inc
Protocol: Pharmacological Data: Pharmacological Methods I. In-vitro determination of affinity to CB1/CB2-Receptors
The in-vitro determination of the affinity of the inventive quaternary ammonium salts of substituted pyrazoline compounds to CB1/CB2-Receptors is carried out as described in the publication of Ruth A. Ross, Heather C. Brockie et al., “Agonist-inverse agonist characterization at CB1 and CB2 cannabinoid receptors of L-759633, L759656 and AM630”, British Journal of Pharmacology, 126, 665-672, (1999), whereby the transfected human CB1 and CB2 receptors of Receptor Biology, Inc. are used. The radioligand used for both receptors is [^3H]-CP55940. The respective parts of the description are hereby incorporated by reference and forms part of the present disclosure.
The affinity of the inventive substituted pyrazoline compounds to CB1/CB2 receptors was determined as described above.

[1] = molecular target: recombinant human cannabinoid 1 receptor (CB1) (Homo sapiens, UniProt P21554); experiment: [35S]GTPγS binding antagonistic assay against WIN 55,212-2, CHO cell membranes; format: biochemical; conditions: compound at 1 μM against WIN 55,212-2; 100% = effect of internal standard CB1-antagonist
Protocol: The percentage of catalepsy is determined according of the following formula: % Catalepsy=arithmetic mean/6×100 Antagonistic Assay: Materials and Methods. Membrane Preparation:
Chinese hamster ovary (CHO) cells stably expressing recombinant human cannabinoid 1 receptor (CB1) were cultured in nutrient mixture Ham's F 12 supplemented with 10% heat-inactivated fetal bovine serum, 2 mM L-glutamine, 50 U/ml penicillin, 50 U/ml streptomycin and 0.5 mg/ml geneticin. In order to obtain cells, culture flasks were washed twice with phosphate buffered saline and scraped. Then, cells were collected by centrifugation (200×g, 10 min) and stored dry at −80° C. Cells were homogenized in ice-cold 20 mM HEPES, 10 mM EDTA (pH 7.5) and centrifuged at 40,000×g for 15 min at 4° C. The pellet was resuspended in 20 mM HEPES, 0.1 mM EDTA (pH 7.5) and centrifuged for 15 min at 4° C. The final pellet was resuspended in 20 mM HEPES, 0.1 mM EDTA (pH 7.5), and divided in aliquots and stored at −80° C. until use.
[^35S]GTPγS Binding Assay:
The reaction was performed in 96-well plates. […] The incubation was terminated by rapid filtration through Millipore Multiscreen glass fiber FB, and rinsed two-times with ice-cold assay buffer. Filter plates were dried and 30 μl of scintillation liquid was added. Radioactivity was determined using Wallac Microbeta Trilux. Each experiment was performed at least in duplicate.
The average of basal [^35S]GTPγS binding was subtracted from all binding data.

[2] = In vivo testing for antiobesic activity, acute treatment; conditions: rats, acute oral administration
Protocol: III. In Vivo Testing for Antiobesic Activity a) Accute-Treatment
Normally handled rats were habituated to a reversed cycle 12/12 h, and the compound as well as saline was acutely orally administered. After administration the cumulated food intake (g) was measured at 6 h and 23 h. Following that the difference in body weight between control and compound treated animals was measured.

[3] = transfected human receptors, [3H]-CP55940, read-out: IC50

recombinant human cannabinoid 1 receptor (CB1), sequence (P21554 whole entry): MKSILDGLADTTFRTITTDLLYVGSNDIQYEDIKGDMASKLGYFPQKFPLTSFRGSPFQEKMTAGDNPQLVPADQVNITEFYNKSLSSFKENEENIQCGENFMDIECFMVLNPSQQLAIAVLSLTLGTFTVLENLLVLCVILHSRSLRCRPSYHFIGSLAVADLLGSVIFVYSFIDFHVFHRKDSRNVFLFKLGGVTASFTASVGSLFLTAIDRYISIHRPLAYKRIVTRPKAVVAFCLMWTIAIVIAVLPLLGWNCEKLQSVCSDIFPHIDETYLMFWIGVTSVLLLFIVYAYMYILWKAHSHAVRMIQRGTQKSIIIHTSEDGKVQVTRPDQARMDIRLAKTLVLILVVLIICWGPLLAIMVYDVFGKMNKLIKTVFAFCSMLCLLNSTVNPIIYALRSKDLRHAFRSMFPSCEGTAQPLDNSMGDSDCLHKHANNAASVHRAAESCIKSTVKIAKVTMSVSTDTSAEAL
T1 sequence (P21554 whole entry): as above

Row | SMILES | IC50 (CB1-Receptor; [3]) | Antagonism (%) [1] | IC50 (CB1-Receptor) | activity reducing body weight [2]
1 | C[C@H]1C(C(=O)NC2CCCCCC2)=NN(c2ccc(Cl)cc2Cl)[C@H]1c1ccc(Cl)cc1 (relative stereo) [Example 1, cis-5-(4-chlorophenyl)-N-cycloheptyl-1-(2,4-dichlorophenyl)-4-methyl-4,5-dihydro-1H-pyrazole-3-carboxamide] | 0.0319 µM | 79 ± 18% |  | 
2 | C[C@H]1C(C(=O)NC2CCCCCC2)=NN(c2ccc(Cl)cc2Cl)[C@H]1c1ccc(Br)cc1 (relative stereo) [Example 5, cis-5-(4-bromophenyl)-N-cycloheptyl-1-(2,4-dichlorophenyl)-4-methyl-4,5-dihydro-1H-pyrazole-3-carboxamide] | 0.03 µM | 58.1% |  | 
3 | C[C@H]1C(C(=O)NC2CCCCCC2)=NN(c2ccc(Cl)cc2Cl)[C@H]1c1ccc(F)cc1 (relative stereo) [Example 7, cis-N-cycloheptyl-1-(2,4-dichlorophenyl)-5-(4-fluorophenyl)-4-methyl-4,5-dihydro-1H-pyrazole-3-carboxamide] | 0.112 µM | 83 ± 0% |  | 
4 | COc1ccc([C@H]2[C@@H](C)C(C(=O)NC3CCCCCC3)=NN2c2ccc(Cl)cc2Cl)cc1 (relative stereo) [Example 11, cis-N-cycloheptyl-1-(2,4-dichlorophenyl)-5-(4-methoxyphenyl)-4-methyl-4,5-dihydro-1H-pyrazole-3-carboxamide] |  | 78 ± 8% | 0.066 µM | 
5 | C[C@H]1C(C(=O)N[C@@H]2CCCC[C@H]2O)=NN(c2ccc(Cl)cc2Cl)[C@H]1c1ccc(Cl)cc1 [Example 15, (4R,5R)-5-(4-chlorophenyl)-1-(2,4-dichlorophenyl)-N-((1R,2R)-2-hydroxycyclohexyl)-4-methyl-4,5-dihydro-1H-pyrazole-3-carboxamide] |  |  |  | good activity
6 | C[C@H]1C(C(=O)N[C@H]2CCCC[C@@H]2O)=NN(c2ccc(Cl)cc2Cl)[C@H]1c1ccc(Cl)cc1 [Example 17, (4R,5R)-5-(4-chlorophenyl)-1-(2,4-dichlorophenyl)-N-((1S,2S)-2-hydroxycyclohexyl)-4-methyl-4,5-dihydro-1H-pyrazole-3-carboxamide] |  | 13% |  | 
7 | C[C@@H]1C(C(=O)N[C@H]2CCCC[C@@H]2O)=NN(c2ccc(Cl)cc2Cl)[C@@H]1c1ccc(Cl)cc1 [Example 18, (4S,5S)-5-(4-chlorophenyl)-1-(2,4-dichlorophenyl)-N-((1S,2S)-2-hydroxycyclohexyl)-4-methyl-4,5-dihydro-1H-pyrazole-3-carboxamide] | 0.069 µM | 93 ± 8% |  | good activity
8 | COc1ccc([C@H]2[C@@H](C)C(C(=O)N[C@H]3CCCC[C@@H]3O)=NN2c2ccc(Cl)cc2Cl)cc1 [Example 29, (4R,5R)-5-(4-methoxyphenyl)-1-(2,4-dichlorophenyl)-N-((1S,2S)-2-hydroxycyclohexyl)-4-methyl-4,5-dihydro-1H-pyrazole-3-carboxamide] |  | 37% |  | 
9 | COc1ccc([C@@H]2[C@H](C)C(C(=O)N[C@H]3CCCC[C@@H]3O)=NN2c2ccc(Cl)cc2Cl)cc1 [Example 30, (4S,5S)-5-(4-methoxyphenyl)-1-(2,4-dichlorophenyl)-N-((1S,2S)-2-hydroxycyclohexyl)-4-methyl-4,5-dihydro-1H-pyrazole-3-carboxamide] |  | 85% |  | 
